Source: patent publication US5200424A, “Use of 10-membered ring lactones as lipid regulators” (priority 1990, dated 1993)
Read-outs that look alike come from different tables or passages of the source.

Legend:
[1] = test system: cholesterol biosynthesis in HEP-G2 cells; assay: Cholesterol biosynthesis inhibition in HEP-G2 liver cell cultures (14C-acetate); assay type: cell-based; settings: Homo sapiens, 3 h with (14C)acetate
Experimental: (§1) Monolayers of HEP-G2 cells in liproprotein-free nutrient medium are preincubated with appropriate concentrations of the substances of the formula I to be tested for one hour. After addition of the […] biosynthesis precursor sodium (^14 C)acetate the incubation is continued for 3 hours. After this a portion of the cells is subjected to alkaline hydrolysis after addition of an internal standard of ^3 H-cholesterol. The lipids from the hydrolyzed cells are extracted with a chloroform/methanol mixture. This lipid mixture is, after addition of carrier cholesterol, fractionated by preparative thin-layer chromatography, the cholesterol band is stained and then isolated, and the amount of ^14 C-cholesterol formed from the ^14 C-precursor is determined by scintigraphy. Cellular protein was determined in an aliquot of the cells so that the amount of ^14 C-cholesterol formed from ^14 C-precursor per mg of cellular protein per unit time can be calculated. The control is used for comparison for the inhibitory effect of an added test product so that it is possible to state directly the inhibition of the cholesterol biosynthesis at a particular molar concentration of the test product in the medium. The integrity of the cell culture and the absence of cell damage owing to exposure to the product is assessed morphologically (light microscopy) and measured biochemically by determining the lactic dehydrogenase release into the incubation medium on aliquots of the cell culture.

[2] = Body weight, relative liver weight and feed consumption in rats; assay type: in vivo, Rat, male, strain: HOE WISKf (SPF 71); settings: 15 mg/kg/day, male rat, after treatment
Experimental: (§2) Male rats with an initial weight above 180 g received the test product of the formula I in polyethylene glycol 400 by gavage once a day (in the morning) (0.5 ml/100 g of body weight); the relevant control group received only the same amount of solvent. The last (7th) administration took place 24 hours before blood sampling and sacrifice. There was free access to feed and water during the test. Feed was withdrawn 24 hours before the retroorbital blood sampling, which took place under light ether anesthesia before and after the treatment period (that is to say on the 1st and 8th day). Serum glutamic-oxalate transaminase (SGOT), serum glutamic-pyruvic transaminase (SGPT), alkaline phosphatase (aP), bilirubin and creatinine were determined in the serum of each individual animal. The total glycerol was measured from the pooled serum of all animals in a group as measure of the triglycerides (Eggstein, M. Kreutz, F. H.: Klin. Wschr. 44, 262 and 267 (1966); Wahlefeld, A. W., in: H. O. Bergmeier: Methoden der enzymatischen Analyse (Methods of enzymatic analysis), 2nd Edition, Volume II, Verlag Chemie 1974, Page 1878). Immediately after the blood sampling the animals were sacrificed by distortion of the spinal column. The livers were removed, and the relative liver weight was determined. In addition, the body weight gain and the feed consumption were investigated. The statistical analysis was carried out by Student's t test.

[3] = Serum enzymes, bilirubin and creatinine in rats; assay type: in vivo, Rat, male, strain: HOE WISKf (SPF 71)
Experimental: as §2

serum lipoproteins = assay: Lipoprotein fractionation by ultracentrifugation in rats (serum cholesterol, protein, triglycerides; hypolipemic effect); assay type: in vivo, Rat, male, strain: HOE WISKf (SPF 71)
Experimental: as §2, with “The total glycerol was measured from the pooled serum of all animals in a group as measure of the triglycerides (Eggstein, M. Kreutz, F. H.: Klin. Wschr. 44, 262 and 267 (1966); Wahlefeld, A. W., in: H. O. Bergmeier: Methoden der enzymatischen Analyse (Methods of enzymatic analysis), 2nd Edition, Volume II, Verlag Chemie 1974, Page 1878).” left out
To analyze the serum lipoproteins, after the treatment period the serum of all rats in a group was pooled.

HEP-G2 cells = assay: Integrity of the cell culture / cell damage (light microscopy, lactic dehydrogenase release); assay type: cell-based
Experimental: as §1, with “The control is used for comparison for the inhibitory effect of an added test product so that it is possible to state directly the inhibition of the cholesterol biosynthesis at a particular molar concentration of the test product in the medium.” left out

[4] = 15 mg/kg/day, male rat, after treatment (8th day)
[5] = 15 mg/kg/day, male rat, before treatment (1st day)
[6] = 15 mg/kg/day, male rat, by gavage, 7 administrations

Structure (SMILES): CC1CC(O)C=CC(O)C(O)CC(=O)O1 (centres unmarked)
- IC50 ([1]; HepG2, 1 h preincubation, read-out: inhibits biosynthesis by 50% at): 100 nM
- % Change from control, Body weight after [2]: -3%
- % Change from control, rel. feed consumption after [2]: -1%
- Bilirubin, Final, mean [3, 4]: 2.0 µmol/L
- Creatinine, Final, mean [3, 4]: 64 µmol/L
- Serum enzymes SGOT, Final, mean [3, 4]: 56 U/L
- Serum enzymes SGPT, Final, mean [3, 4]: 25 U/L
- Serum enzymes aP, Final, mean [3, 4]: 247 U/L
- Bilirubin, Initial, mean [3, 5]: 2.8 µmol/L
- Creatinine, Initial, mean [3, 5]: 67 µmol/L
- Serum enzymes SGOT, Initial, mean [3, 5]: 41 U/L
- Serum enzymes SGPT, Initial, mean [3, 5]: 29 U/L
- Serum enzymes aP, Initial, mean [3, 5]: 359 U/L
- tolerability parameters: SGOT, SGPT, aP, serum bilirubin and serum creatinine ([3]; rat): not pathologically changed
- % Change compared with control, Protein LDL (serum lipoproteins; [6]): -20%
- % Change compared with control, Protein VLDL (serum lipoproteins; [6]): -12%
- % Change compared with control, Total cholesterol HDL (serum lipoproteins; [6]): -13%
- % Change compared with control, Total cholesterol LDL (serum lipoproteins; [6]): -31%
- % Change compared with control, Total cholesterol VLDL (serum lipoproteins; [6]): -40%
- % Change compared with control, Triglycerides VLDL (serum lipoproteins; [6]): -22%
- Cholesterol HDL/LDL Based on control (serum lipoproteins; 15 mg/kg/day, male rat, by gavage, control 1.00): 1.26
- Cholesterol HDL/LDL (serum lipoproteins; 15 mg/kg/day, male rat, by gavage, control 3.75): 4.74
- reduction in the triglycerides (mainly transported in the VLDL) (serum lipoproteins; rat): distinct reduction
- vasoprotective index HDL-cholesterol: LDL-cholesterol (serum lipoproteins; rat): significant increase
- reduction in the atherogenic serum lipoproteins LDL and VLDL (cholesterol content) (serum lipoproteins; rat, at one seventh of the dose of clofibrate, compared with clofibrate): equally great reduction
- reduction in the HDL fraction (serum lipoproteins; rat, compared with clofibrate): only half as large
- vasoprotective index HDL-cholesterol: LDL-cholesterol compared with clofibrate (serum lipoproteins; rat, compared with clofibrate): distinctly higher than with clofibrate
- cell culture damage (HEP-G2 cells): not damaged

Structure (SMILES): C[C@H](CCCC(C)(C)O)[C@H]1CC[C@H]2[C@@H]3CC=C4C[C@@H](O)CC[C@]4(C)[C@H]3CC[C@]12C [25-hydroxycholesterol]
- IC50 ([1]; HepG2, standard products, 1 h preincubation, read-out: IC50, inhibition of cholesterol biosynthesis): 230 nM
